Reference: US9234006B2, “Compounds” (Novacta Biosystems Limited, priority 2011, dated 2016)
Counter-ions that a name gives are not always drawn. Where a SMILES comes first, the peptide text is derived from it. Bridges are numbered along the chain shown (N, C = ends). [ ]: non-standard residue; d: D form. The star is where a group is joined. ξ: configuration not given here. Thr(3ξ) = CC(O)[C@H](N)C(=O)O; Dab = NCC[C@H](N)C(=O)O; Aoc = NCCCCCCCC(=O)O; X2 = NC1CCCC1C(=O)*

Key:
Assay in all cases: MIC susceptibility testing, broth microdilution in CaMHB
E. coli ATCC25922 = format: cell-based, Escherichia coli; conditions: Table 4
Experimental: (§1) To evaluate the potency and spectrum of the compounds, susceptibility testing was performed against four strains of each of the four Gram negative pathogens, Escherichia coli, Pseudomonas aeruginosa, Klebsiella pneumoniae and Acinetobacter baumannii.
(§2) The day before testing, 3 to 4 colonies were picked from fresh Mueller-Hinton Agar (MHA) plate and transferred into 10 mL of Cation adjusted MHB (CaMHB). Cultures were incubated at 37° C. 250 rpm for 18-20 hours before being diluted 100-fold in fresh CaMHB. The subcultures were grown further until the OD600 reached 0.2-0.3 corresponding to […]. The actively growing cultures were diluted 100-fold in fresh medium and used for the inoculum.
(§3) The assays were performed in duplicate.
(§4) Data was obtained under similar conditions to Table 4 except that different batches of cation-adjusted Muller-Hinton broth were used. The MIC values for these compounds are compared with those values obtained for Polymyxin B, Colistin Sulphate, CB-182,804 and NAB739 (as the TFA salt). CB-182,804 is a polymyxin decapeptide derivative with an aryl urea substituent at the N-terminus, which has been claimed to have lower toxicity than Polymyxin B (compound 5 in WO 2010/075416. See page 37). NAB739 has been described previously by Vaara et al.

E. coli ATCC700928 = format: cell-based, Escherichia coli; conditions: Table 4
Experimental: as §1, §2, §3, §4

E. coli NCTC12900 = format: cell-based, Escherichia coli; conditions: Table 4
Experimental: as §1, §2, §3, §4

E. coli NCTC9001 = format: cell-based, Escherichia coli; conditions: Table 4
Experimental: as §1, §2, §3, §4

P. aeruginosa ATCC 9721 = format: cell-based, Pseudomonas aeruginosa; conditions: P. aeruginosa ATCC 9721; Table 4
Experimental: as §1, §2, §3, §4

P. aeruginosa ATCC10145 = format: cell-based, Pseudomonas aeruginosa; conditions: Table 4
Experimental: as §1, §2, §3, §4

P. aeruginosa ATCC27853 = format: cell-based, Pseudomonas aeruginosa; conditions: Table 4
Experimental: as §1, §2, §3, §4

[1] = tested on: P. aeruginosa ATCCCRM-9027; format: cell-based, Pseudomonas aeruginosa; conditions: P. aeruginosa ATCCCRM-9027; Table 4
Experimental: as §1, §2, §3, §4

K. pneumoniae ATCC 4352 = format: cell-based, Klebsiella pneumoniae; conditions: K. pneumoniae ATCC 4352; Table 4
Experimental: as §1, §2, §3, §4

[2] = tested on: K. pneumoniae ATCCBAA-1706; format: cell-based, Klebsiella pneumoniae; conditions: Table 4
Experimental: as §1, §2, §3, §4

K. pneumoniae NCTC7427 = format: cell-based, Klebsiella pneumoniae; conditions: Table 4
Experimental: as §1, §2, §3, §4

K. pneumoniae NCTC8172 = format: cell-based, Klebsiella pneumoniae; conditions: Table 4
Experimental: as §1, §2, §3, §4

A. baumannii ATCC19606 = format: cell-based, Acinetobacter baumannii; conditions: Table 4
Experimental: as §1, §2, §3, §4

A. baumannii ATCCBAA-747 = format: cell-based, Acinetobacter baumannii; conditions: Table 4
Experimental: as §1, §2, §3, §4

A. baumannii NCTC13423 = format: cell-based, Acinetobacter baumannii; conditions: Table 4
Experimental: as §1, §2, §3, §4

A. baumannii NCTC7844 = format: cell-based, Acinetobacter baumannii; conditions: Table 4
Experimental: as §1, §2, §3, §4

SMILES | MIC (E. coli ATCC25922) [micrograms/mL] | MIC (E. coli ATCC700928) [micrograms/mL] | MIC (E. coli NCTC12900) [micrograms/mL] | MIC (E. coli NCTC9001) [micrograms/mL] | MIC (P. aeruginosa ATCC 9721) [micrograms/mL] | MIC (P. aeruginosa ATCC10145) [micrograms/mL] | MIC (P. aeruginosa ATCC27853) [micrograms/mL] | MIC [1] [micrograms/mL] | MIC (K. pneumoniae ATCC 4352) [micrograms/mL] | MIC [2] [micrograms/mL] | MIC (K. pneumoniae NCTC7427) [micrograms/mL] | MIC (K. pneumoniae NCTC8172) [micrograms/mL] | MIC (A. baumannii ATCC19606) [micrograms/mL] | MIC (A. baumannii ATCCBAA-747) [micrograms/mL] | MIC (A. baumannii NCTC13423) [micrograms/mL] | MIC (A. baumannii NCTC7844) [micrograms/mL]
CC(C)C[C@@H]1NC(=O)[C@@H](Cc2ccccc2)NC(=O)[C@H](CCN)NC(=O)[C@@H](NC(=O)[C@H](CCN)NC(=O)[C@@H](NC(=O)CN)C(C)O)CCNC(=O)[C@H](C(C)O)NC(=O)[C@H](CCN)NC(=O)[C@H](CCN)NC1=O (stereo partly drawn) [Example 3, 2-Aminoethanoyl Polymyxin B Nonapeptide, Sulphate Salt] (H-G[Thr(3ξ)][Dab][Dab][Dab][dF]L[Dab][Dab][Thr(3ξ)]; lactam 4-C) | 2 | 4 | 8 | 4 | 0.125 | 0.25 | 0.5 | 0.125 | 1 | 16 | 0.5 | >32 | 2 | >32 | 16 | 16
CC(C)C[C@@H]1NC(=O)[C@@H](Cc2ccccc2)NC(=O)[C@H](CCN)NC(=O)[C@@H](NC(=O)[C@H](CCN)NC(=O)[C@@H](NC(=O)CCCCCCCN)C(C)O)CCNC(=O)[C@H](C(C)O)NC(=O)[C@H](CCN)NC(=O)[C@H](CCN)NC1=O (stereo partly drawn) [Example 9, 8-Aminooctanoyl Polymyxin B Nonapeptide, Sulphate Salt] (H-[Aoc][Thr(3ξ)][Dab][Dab][Dab][dF]L[Dab][Dab][Thr(3ξ)]; lactam 4-C) | 2 | 1 | 1 | 2 | 0.5 | 2 | 0.5 | 0.5 | 0.5 | 0.5 | 0.5 | >32 | 16 | >32 | >32 | >32
CC(C)C[C@@H]1NC(=O)[C@@H](Cc2ccccc2)NC(=O)[C@H](CCN)NC(=O)[C@@H](NC(=O)[C@H](CCN)NC(=O)[C@@H](NC(=O)C2CCCC2N)C(C)O)CCNC(=O)[C@H](C(C)O)NC(=O)[C@H](CCN)NC(=O)[C@H](CCN)NC1=O (stereo partly drawn) [Example 11, (1R,S/2R,S)-2-Aminocyclopentanecarbonyl Polymyxin B Nonapeptide, Sulphate Salt] (X2-[Thr(3ξ)][Dab][Dab][Dab][dF]L[Dab][Dab][Thr(3ξ)]; lactam 3-C) | 2 | 0.125 | 2 | 0.5 | 0.25 | 0.25 | 0.125 | 0.125 | 0.5 | 0.25 | 0.25 | 2 | 2 | 1 | 0.5 | 4
